{
  "source": "paper PMC3030572",
  "about": "“Antamanide, a Derivative of Amanita phalloides, Is a Novel Inhibitor of the Mitochondrial Permeability Transition Pore” (PLoS ONE, 2011)",
  "key": {"[1]": {"tested_on": "phallotoxins and amatoxins", "details": "cited from earlier work", "excerpt": "Antamanide (AA) is a monocyclic, homodetic decapeptide isolated from the poisonous mushroom Amanita phalloides. […] Little is known about the biochemical mechanisms underlying these diverse bioactivities."}, "[2]": {"tested_on": "organic anion-transporting polypeptide family", "details": "also our unpublished data; ref [8]; cited from earlier work", "excerpt": "Antamanide (AA) is a monocyclic, homodetic decapeptide isolated from the poisonous mushroom Amanita phalloides. […] Little is known about the biochemical mechanisms underlying these diverse bioactivities. […] The CyP chaperone activity, i.e. the isomerization to the cis form of the peptidyl bonds preceding each proline, is involved in folding and association processes required for proteins to perform thei ..."}, "[3]": {"tested_on": "hepatocyte membrane transporter for the phallotoxin phalloidin and for the amatoxin alpha-amanitin", "details": "proposed; ref [6], [7]; cited from earlier work", "excerpt": "(§1) Antamanide (AA) is a monocyclic, homodetic decapeptide isolated from the poisonous mushroom Amanita phalloides. […] Little is known about the biochemical mechanisms underlying these diverse bioactivities. To explain its antitoxic activity, ..."}, "[4]": {"tested_on": "IL-2-induced multisystem organ edema", "details": "ref [5]; cited from earlier work", "excerpt": "as §1"}, "tumour cell models": {"tested_on": "tumour cell models", "details": "in vitro; ref [3]; cited from earlier work", "excerpt": "as §1"}, "animal model": {"tested_on": "animal model", "details": "ref [4]; cited from earlier work", "excerpt": "as §1"}, "[5]": {"tested_on": "mitochondrial permeability transition pore (PTP), wild-type fibroblasts", "type": "cell-based, mouse", "details": "Figure 4C", "method": "A, B, PTP opening of digitonized wild-type (A) or CyP-D knock-out (B) fibroblasts was measured with the whole-cell CRC assay. Experiments were started by the addition of digitonized cells (not shown) followed by pulses of Ca^2+ (5 µM each) and are plotted as in Figure 1B. The use of AA is shown with a red trace. Alamethicin (Alm, 1 µM) was added at the end of each measurement to fully release Ca^2+ from intracellular stores. […] D, isomerase activity assay (see Materials and Methods): after addition of the substrate peptide N-succinyl-Ala-Ala-cis-trans-Pro-Phe-p-nitroanilide (arrow), chimotrypsin cleaves the trans-isomeric form, causing a rise in absorbance.\nThe Ca^2+ retention capacity (CRC) assay was used to assess PTP opening following trains of Ca^2+ pulses and measured fluorimetrically at 25°C in the presence of the Ca^2+ indicator Calcium Green-5N (1 µM; λexc: 505 nm; λem: 535 nm; Molecular Probes). […] Digitonin was then eliminated and the number of cells carefully assessed before starting each experiment. […] Cells or mitochondria were then exposed to Ca^2+ spikes, and fluorescence drops were used to assess mitochondrial Ca^2+ uptake. PTP opening was detected as a fluorescence increase. Calcium Green-5N fluorescence was measured either with a fluorescence spectrometer LS50B (Perkin Elmer, Waltham, MA) or with a Fluoroskan Ascent FL fluorimeter (Thermo Electron Corporation, Waltham, MA)."}, "HeLa cells [6]": {"tested_on": "HeLa cells", "type": "cell-based, human", "details": "clotrimazole; data not shown"}, "[7]": {"tested_on": "mitochondria from CyP-D knock-out fibroblasts", "assay": "mitochondrial respiration assay, CyP-D knock-out fibroblast mitochondria", "type": "biochemical, mouse", "details": "polarography, Clark electrode, 25°C", "method": "Figure 3 Effect of AA on respiration and PTP opening in mitochondria of wild-type or CyP-D knock-out mouse fibroblasts. A, upper part: Western blot analysis assessing CyP-D expression in fibroblasts obtained from either wild-type or CyP-D knock-out mice; HKII was utilized to verify protein load; lower part: representative experiment showing oxygen consumption as assessed by polarography (see Methods) in mitochondria isolated from wild-type fibroblasts in the absence (a) or presence (b) of 8 µM AA. Experiments were started by adding 0.6 mg of mitochondria (Mito), followed by 100 µM ADP and 50 µM 2,4-dinitrophenol (DNP) (arrows). Each experiment was repeated at least three times. Oxygen consumption is reported as percentage of initial value on the y axis. B, bar graphs report the ratio between the CRC detected in the presence (CRC) and absence (CRC0) of increasing concentrations of AA, in mitochondria from either wild-type fibroblasts (left) or CyP-D knock-out fibroblasts (right). […] Results are mean±SD of at least 4 experiments.\nMitochondrial oxygen consumption was measured polarographically at 25°C with a Clark oxygen electrode (Yellow Springs Instruments, OH, USA). Mitochondria (0.6 mg per experimental point) were incubated in a solution of 130 mM KCl, 10 mM Tris-Mops, 1 mM Pi-Tris, 20 mM EGTA-Tris and 2 µM rotenone/5 mM succinate to assay basal respiration (state 4). […]"}, "mouse liver mitochondria": {"tested_on": "mouse liver mitochondria", "assay": "mitochondrial respiration assay, mouse liver mitochondria", "type": "biochemical", "details": "polarography, Clark electrode, 25°C; data not shown", "method": "Mitochondrial oxygen consumption was measured polarographically at 25°C with a Clark oxygen electrode (Yellow Springs Instruments, OH, USA). Mitochondria (0.6 mg per experimental point) were incubated in a solution of 130 mM KCl, 10 mM Tris-Mops, 1 mM Pi-Tris, 20 mM EGTA-Tris and 2 µM rotenone/5 mM succinate to assay basal respiration (state 4). ADP (200 µM) was subsequently added to measure state 3 respiration, followed by the uncoupling agent dinitrophenol (100 µM) to assess the maximal respiration rate."}, "HeLa cells [8]": {"tested_on": "HeLa cells", "type": "cell-based, human", "details": "30 min preincubation, then TAT-HK 1 hour", "method": "A, cytofluorimetric analysis of cell death induction in HeLa cells treated for 1 hour with TAT-HK. […] TAT-Ctr was used as a negative control. Cells were double stained with Annexin V-FITC and propidium iodide (PI), to respectively evaluate apoptosis induction as phosphatidylserine exposure on the cell surface (increased Annexin V-FITC staining) and cell death as plasma membrane permeabilization (increased PI staining). We considered Annexin V^+ as early/intermediate apoptotic cells; PI^+ as necrotic cells; double stained as late apoptotic cells. Bar graphs display the percentage of each cell population (mean±SD, n = 4; double positive cells are added to both bars). […] B, histograms reporting a representative experiment, where viable cells are indicated in red, PI^+- and Annexin V^+-cells are indicated in grey and green, respectively.\nFlow cytometry recordings were performed as described, [51], [52]. Briefly, at the end of the incubation, cells were resuspended in 135 mM NaCl, 10 mM HEPES, 5 mM CaCl2 and incubated at 37°C in either TMRM (10 nM) to detect mitochondrial depolarization (reduced TMRM staining), or in FITC-conjugated Annexin-V and propidium iodide (PI, 1 µg/ml), to detect phosphatidylserine exposure on the cell surface (increased FITC-conjugated Annexin-V staining) and loss of plasma membrane integrity (PI permeability and staining). […] Samples were analyzed on a FACSCanto II flow cytometer (Becton Dickinson, San Diego, CA, USA). Data acquisition and analysis were performed using FACSDiva software."}},
  "data": [
    {"substance": "Antamanide [AA]", "values": [
      {"measurement": "antidote activity", "setting": "[1]; ref [2]", "value": "strong antidote activity against phallotoxins and amatoxins"},
      {"measurement": "abrogation of toxic effects of phalloidin", "setting": "[1]; ref [8], [9]", "value": "abrogates the toxic effects of the phallotoxin phalloidin"},
      {"measurement": "inhibition of cell uptake of phalloidin", "setting": "[2]", "value": "block cell uptake of the phallotoxin phalloidin"},
      {"measurement": "antagonism of hepatocyte transporter for phalloidin and alpha-amanitin", "setting": "[3]", "value": "competitively antagonizes a hepatocyte membrane transporter"},
      {"measurement": "attenuation of edema", "setting": "[4]", "value": "attenuates IL-2-induced multisystem organ edema"},
      {"measurement": "tumor cell growth inhibition", "setting": "tumour cell models", "value": "inhibits tumor cell growth in vitro"},
      {"measurement": "antitumor action", "setting": "animal model", "value": "displays an antitumor action in an animal model"},
      {"measurement": "PTP inhibition (CRC/CRC0)", "setting": "[5]; digitonized wild-type cells, mean±SD of at least 4 experiments", "value": "display an inhibitory effect on the PTP in wild-type"},
      {"measurement": "CRC/CRC0: difference from CRC of untreated mitochondria", "setting": "[5]; wild-type fibroblasts, Student's t test", "value": "significant difference (Student's t test analysis; *: p<0.01)"},
      {"measurement": "inhibition of clotrimazole-induced cell death", "setting": "HeLa cells [6]", "value": "inhibited the process"},
      {"measurement": "oxygen consumption", "setting": "[7]", "value": "unaffected"},
      {"measurement": "oxygen consumption", "setting": "mouse liver mitochondria", "value": "unaffected"},
      {"measurement": "effect on TAT-HK-induced necrotic response", "setting": "HeLa cells [8]", "value": "virtually abolished the necrotic response"},
      {"measurement": "residual apoptosis after TAT-HK", "setting": "HeLa cells [8]", "value": "a small fraction of cells undergoing apoptosis was still detectable"},
      {"measurement": "protection from TAT-HK induced death", "setting": "HeLa cells [8]; n = 4, Student's t test *: p<0.01", "value": "significantly protected from TAT-HK induced death"}
    ]}
  ]
}
